Consider one molecule from publication PMC7176092, “Development of the first in vivo GPR17 ligand through an iterative drug discovery pipeline: A novel disease-modifying strategy for multiple sclerosis” (PLoS ONE, 2020).

Where two headings read alike, the source gives them in different places.

The subject of data set [1] is 40 human receptors. As to the kind of experiment: Selectivity profile on class-A GPCRs (Eurofins Cerep). To be noted: 0.1 μM; binding and cellular assays. The text has this: A subset of GPCRs with a relevant role in demyelination/remyelination was also included in this analysis.
For data set [2], the system named is OPC-DRG co-cultures. As to the kind of experiment: In vitro myelination assay. It is filed as cell-based, rat OPCs, mouse DRG. The settings on record: 10 nM; CTRL 100%; mean ± S.E.M. The protocol: OPC-DRG co-cultures were prepared according to a previously described protocol.
DRG explants from E14.5 mice were directly put in culture after being plucked off from embryo spinal cords. Then, they were grown in Neurobasal medium (Life Technologies) in presence of 100 ng/ml nerve growth factor (NGF, Sigma-Aldrich), and in presence of 10 μM fluorodeoxyuridine (FUDR, Sigma-Aldrich) in order to remove all non-neuronal cells.
Purified primary rat OPCs were obtained from mixed glial cultures by orbital shaking for 3 hours. […]
At day 15, OPC/DRG co-cultures treated with either the selected compounds or the vehicle were fixed and treated with rat anti-MBP (Millipore), mouse anti-SMI 31 and mouse anti-SMI 32 (Cell Signaling), followed by the secondary goat anti-rat/-mouse antibody, conjugated to Alexa Fluor 555 or Alexa Fluor 488 (Life Technologies). The quantification of myelin segments was performed following a previously described protocol with ZEISS LSM Image Browser by acquiring 6 random fields of 4–5 coverslips for each experimental condition. […] The amount of myelin per axon (myelination index) was calculated as the ratio between the white pixels area and the green pixels area. […]

Data set [3] addresses T1, ADR3 (Homo sapiens, UniProt P13945).
T1 construct: Eurofins Cerep (external service)
Briefly: Binding assay ADR3 (reference Alprenolol). To be noted: 100 nM.

Data set [4] in a line: Single dose time course study in plasma and brain, 10 mg/kg subcutaneous. It counts as in vivo, mouse. The settings on record: 10 mg/kg s.c. single dose, C57BL/6 male mice. As to the method: Afterwards, the presence of the top compound in the brain was assessed in a single dose time course study consisting of a subcutaneous administration of a 10 mg/kg dose (15% Ethanol, 85% PEG400) to 24 naïve C57BL/6 male mice. Eight time-points (n = 3/time-point) were drawn over 24 hours after dosing. Each animal was sampled for blood collection at two time-points (the first via a tail vein, the second via cardiac puncture under anaesthesia). Blood samples were collected and centrifuged to prepare plasma according to standard procedures and stored at approximately -20°C, pending analysis (n = 48 samples). The brain of each animal was collected at sacrifice and analysed alongside plasma samples for compound quantification (n = 24 samples). Plasma and brain homogenate samples were analysed for test compound quantification using an optimised method based on protein precipitation followed by HPLC-MS/MS analysis. The results for test substance in plasma and brain homogenates were subjected to non-compartmental PK analysis using WinNonlin Phoenix v.6.3 for generation of appropriate pharmacokinetic parameters to be reported along with graphical representation of the mean plasma concentration profiles over time.

The target in data set [5] is T2, M2 (Homo sapiens, UniProt P08172).
T2 construct: Eurofins Cerep (external service)
T2 sequence (P08172 1-466): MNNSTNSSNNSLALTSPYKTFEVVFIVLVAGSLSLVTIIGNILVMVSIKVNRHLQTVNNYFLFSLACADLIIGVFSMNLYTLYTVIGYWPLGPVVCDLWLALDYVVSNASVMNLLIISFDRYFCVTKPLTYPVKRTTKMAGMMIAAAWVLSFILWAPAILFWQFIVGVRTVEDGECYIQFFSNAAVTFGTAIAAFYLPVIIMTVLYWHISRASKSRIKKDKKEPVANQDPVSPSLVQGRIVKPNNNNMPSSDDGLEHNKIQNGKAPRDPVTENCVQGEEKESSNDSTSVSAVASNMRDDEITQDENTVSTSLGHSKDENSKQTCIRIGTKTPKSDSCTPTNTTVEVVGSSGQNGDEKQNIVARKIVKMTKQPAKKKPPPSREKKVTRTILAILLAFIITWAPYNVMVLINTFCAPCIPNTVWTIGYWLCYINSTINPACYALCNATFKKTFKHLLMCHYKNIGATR
Briefly: Binding assay M2. The settings on record: 100 nM.

Where [6] appears, read: mean of 2, read-out: % Of control specific binding, Mean.
Where [7] appears, read: read-out: % Inhibition of control specific binding.
Where [8] appears, read: single replicates 1 and 2, 0.1 µM.
[9] abbreviates: single replicates 1 and 2, read-out: % Of control specific binding.

T1 sequence (P13945 whole entry): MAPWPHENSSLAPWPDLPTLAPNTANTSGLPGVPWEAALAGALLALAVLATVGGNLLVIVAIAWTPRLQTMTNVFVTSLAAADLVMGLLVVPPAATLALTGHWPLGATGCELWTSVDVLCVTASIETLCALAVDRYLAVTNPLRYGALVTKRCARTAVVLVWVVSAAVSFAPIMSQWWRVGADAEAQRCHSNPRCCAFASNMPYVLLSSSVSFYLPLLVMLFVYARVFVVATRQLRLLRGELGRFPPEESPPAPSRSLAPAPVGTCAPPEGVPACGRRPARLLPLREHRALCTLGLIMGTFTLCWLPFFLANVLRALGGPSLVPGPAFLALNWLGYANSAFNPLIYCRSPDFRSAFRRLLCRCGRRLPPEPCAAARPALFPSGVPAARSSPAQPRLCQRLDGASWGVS

For `Cc1ccc(-c2nnc(SCC(=O)Nc3nccs3)[nH]2)cc1` [Compound 9], in data set [1], the “Pharmacological activity on the tested GPCRs” value is given as “no significant pharmacological activity”. Besides, the “Myelination Index” value in data set [2] worked out at 155.0 ± 12.08%. Moreover, the remaining activity at 0.1 µM was found to be 99.1% in data set [3] (setting [6]), 102% in data set [3] (setting [9]), 108% in data set [5] (setting [6]) and 104% in data set [5] (setting [9]). The inhibition – broadly, the change of the read-out against control, counted positive when it falls – at 0.1 µM in data set [3] (setting [7]) is 1%; in data set [5] (setting [7]) it was -8%. In addition, the “% Of control specific binding” value in data set [3] (setting [8]) came to 95.7%; in data set [5] (setting [8]) it was 111.1%. The Tlast turned out to be 6.00 h in data set [4] (brain) and 8.00 h in data set [4] (plasma). The exposure AUC(0-t) (as a rule, exposure summed from dosing to a finite time, without extrapolation to infinity) in data set [4] (mouse, sc, brain) amounted to 205 ng·h/mL; in data set [4] (mouse, sc, plasma) it was 3930 ng·h/mL. The Cmax (as a rule, the highest concentration seen after dosing) in data set [4] (mouse, sc, brain) came to 270 ng/mL; in data set [4] (mouse, sc, plasma), 6520 ng/mL. Further, the Tmax – broadly, the time at which the peak concentration occurs – turned out to be 15 min in data set [4] (mouse, sc, brain) and 15 min in data set [4] (mouse, sc, plasma). In data set [4] (mouse, sc, brain, read-out: Clast), the concentration at 6 h came to 5.8 ng/mL. The concentration at 8 h in data set [4] (mouse, sc, plasma, read-out: Clast) was found to be 17.4 ng/mL.
